Legend:
[1] = Particle size of the granular carbohydrate compounds used; assay type: physicochemical; conditions: granular carbohydrate compound as used
Source text: The term “Dav” means an average particle diameter (Dav). In the table, the term “D10” means the particle diameter (D10 value) of the particle at the position of 10% when counted from the smallest size zero (minimum) to 100% (maximum) of the particle diameter in a particle diameter distribution. The term “D50” means a certain particle diameter (D50 value) when amount of a larger side becomes equal to amount of a smaller side of the particle diameters divided into two a powder from the certain particle diameter. The term “D90” means the particle diameter (D90 value) of the particle at the position of 90% when counted from the smallest size zero (minimum) to 100% (maximum) of the particle diameter in the particle diameter distribution. The same definitions shall apply to following tables.

[2] = Particle diameter distribution by dynamic light scattering photon correlation method (Delsa Nano); assay type: physicochemical; conditions: starting organic compound powder before mixing/milling
Source text: The term “average particle diameter” used in present specification means a mathematical average diameter (here, defined as the Dav value) in the particle diameter distribution as measured by a dynamic light scattering photon correlation method. The term “50%-diameter” (defined as median diameter or the D50 value) means a certain particle diameter when amount of a larger side becomes equal to amount of a smaller side of the particle diameters divided into two a powder from the certain particle diameter. The term “90%-diameter” (D90 value) means the particle diameter of the particle at the position of 90% when counted from the smallest size zero (minimum) to 100% (maximum) of the particle diameter in the particle diameter distribution as measured by the above-mentioned measurement method. The term “10%-diameter” (D10 value) means the particle diameter of the particle at the position of 10% when counted from the smallest size zero (minimum) to 100% (maximum) of the particle diameter in the particle diameter distribution as measured by the above-mentioned measurement method. […]

Particle Size D10 [1] [μm] | Particle Size D50 [1] [μm] | Particle Size D90 [1] [μm] | Particle Size Dav [1] [μm] | Particle diameter distribution, D10, before milling [2] [nm] | Particle diameter distribution, D50, before milling [2] [nm] | Particle diameter distribution, D90, before milling [2] [nm] | Particle diameter distribution, Dav (average particle diameter), before milling [2] [nm] | Compound
7 | 38 | 76 | 41 |  |  |  |  | O=C[C@H](O)[C@@H](O)[C@H](O[C@@H]1O[C@H](CO)[C@@H](O)[C@H](O)[C@H]1O)[C@H](O)CO [Cellobiose, cellobiose]
63 | 138 | 237 | 147 |  |  |  |  | OC[C@@H](O)[C@@H](O)CO [Erythritol, erythritol]
116 | 247 | 496 | 280 |  |  |  |  | O[C@H]1[C@H](O)[C@@H](O)[C@H](O)[C@@H](O)[C@H]1O [Inositol, inositol]
7 | 30 | 64 | 33 |  |  |  |  | OC[C@@H](O)[C@@H](O[C@H]1O[C@H](CO)[C@@H](O)[C@H](O)[C@H]1O)[C@H](O)[C@@H](O)CO [Maltitol, maltitol]
24 | 66 | 144 | 79 |  |  |  |  | OC[C@@H](O)[C@@H](O)[C@H](O)[C@H](O)CO [Mannitol, D-(−)-mannitol]
75 | 154 | 249 | 159 |  |  |  |  | OC[C@@H](O)[C@@H](O)[C@H](O)[C@@H](O)CO [Sorbitol, sorbitol]
7 | 20 | 50 | 25 |  |  |  |  | OC[C@H]1O[C@H](O[C@H]2O[C@H](CO)[C@@H](O)[C@H](O)[C@H]2O)[C@H](O)[C@@H](O)[C@@H]1O [Trehalose, trehalose]
383 | 615 | 912 | 631 |  |  |  |  | OC[C@@H](O)[C@H](O)[C@@H](O)CO [Xylitol, xylitol]
 |  |  |  | 2277 | 6872 | 22850 | 10160 | CC[C@H]1OC(=O)[C@H](C)[C@@H](O[C@H]2C[C@@](C)(OC)[C@@H](O)[C@H](C)O2)[C@H](C)[C@@H](O[C@@H]2O[C@H](C)C[C@H](N(C)C)[C@H]2O)[C@](C)(OC)C[C@@H](C)C(=O)[C@H](C)[C@@H](O)[C@]1(C)O [clarithromycin powder, clarithromycin]
 |  |  |  | 1389 | 2636 | 5709 | 3148 | CC(=O)[C@@]1(O)CC[C@H]2[C@@H]3C[C@H](C)C4=CC(=O)C=C[C@]4(C)[C@@]3(F)[C@@H](O)C[C@@]21C [fluorometholone powder, fluorometholone]
 |  |  |  | 4422 | 15070 | 33850 | 17270 | COc1cc(/C=C/C(=O)CC(=O)/C=C/c2ccc(O)c(OC)c2)ccc1O [synthetic curcumin powder, curcumin]
16 | 38 | 63 | 38 |  |  |  |  | dextrin

Compound | Particle Size D10 [1] [μm] | Particle Size D50 [1] [μm] | Particle Size D90 [1] [μm] | Particle Size Dav [1] [μm] | Particle diameter distribution, D10, before milling [2] [nm] | Particle diameter distribution, D50, before milling [2] [nm] | Particle diameter distribution, D90, before milling [2] [nm] | Particle diameter distribution, Dav (average particle diameter), before milling [2] [nm]
O=C(CO)[C@@H](O)[C@H](O)[C@H](O)CO [Fructose, fructose] | 158 | 311 | 566 | 339 |  |  |  | 
O.OC[C@H]1O[C@@H](O[C@H]2[C@H](O)[C@@H](O)C(O)O[C@@H]2CO)[C@H](O)[C@@H](O)[C@H]1O (stereo partly shown) [Lactose monohydrate, lactose monohydrate] | 3 | 20 |  | 45 |  |  |  | 
